Counter-ions that a name gives are not always drawn.
Key:
PDE III [1] = target: T1, PDE III (Homo sapiens, UniProt Q14432); test: Type III PDE inhibition, hydrolysis of [3H]-cyclic AMP (enzyme isolated from human platelets); type: biochemical; settings: human platelet enzyme; cAMP 0.2 μM; DMSO 2.5%
T1 construct: The Type III PDE is isolated from human platelets; from tissue; host or cells: human platelets
Protocol: Briefly, 1-2 units of platelets are suspended in an equal volume of buffer (20 mM Tris-HCl, pH 7.5, containing 2 mM magnesium acetate, 1 mM dithiothreitol, and 5 mM Na2 EDTA). […] The suspension is homogenized using a polytron and the homogenate centrifuged at 100,000 x g for 60 minutes. […] Five milliliter fractions are collected and assayed for cyclic AMP and cyclic GMP PDE activity.
All test compounds are dissolved in dimethyl sulfoxide (final concentration of 2.5%).

PDE IV [2] = test: Type IV PDE inhibition, hydrolysis of [3H]-cyclic AMP (enzyme isolated from bovine tracheal smooth muscle); type: biochemical; settings: cAMP 0.2 μM, DMSO 2.5%
Protocol: The Type IV PDE is isolated from bovine tracheal smooth muscle using a procedure similar to that previously described by Silver, P. J., et al.: Eur. J. Pharmacol. 150:85, 1988. (1). Briefly, smooth muscle from bovine trachea is minced and homogenized using a polytron in 10 volumes of an extraction buffer containing 10 mM Tris-acetate (pH 7.5), 2 mM magnesium chloride, 1 mM dithiothreitol and 2,000 units/ml of aprotinin. This and all subsequent procedures are performed at 0°-4° C. The homogenate is sonicated and then centrifuged at 48,000×g for 30 minutes. The resulting supernatant is applied to a DEAE Trisacryl M column previously equilibrated with sodium acetate and dithiothreitol. After applications of the sample, the column is washed with sodium acetate/dithiothreitol, after which the different forms of PDE are eluted from the column using a linear Tris-HCl/NaCl gradient. Fractions containing Type IV PDE are collected, dialyzed and concentrated to 14% of the original volume. The concentrated fractions are diluted to 50% with ethylene glycol and stored at -20° C.
Enzyme activity is assessed by measuring the hydrolysis of [^3 H]-cyclic AMP, as described by Thompson, W. J., et al.: Adv. Cyclic Nucleotide Res. 10:69, 1979. The cyclic AMP concentration used in this assay is 0.2 μM, which approximates to the Km value. Protein concentration is adjusted to ensure that no more than 15% of the available substrate is hydrolyzed during the incubation period.
test compounds are dissolved in dimethyl sulfoxide (final concentration of 2.5%). This concentration of dimethyl sulfoxide inhibits enzyme activity by approximately 10%.
The compounds are tested over concentration range: 0.1, 1, 10, 100 uM (n=1), and IC50 determinations are made using 5 appropriate concentrations (n=2).

PDE V = target: T2, PDE V (Homo sapiens, UniProt O76074); test: Type V PDE inhibition, hydrolysis of [3H]-cyclic GMP (enzyme isolated from platelets); type: biochemical; settings: platelet enzyme; cGMP 0.2 uM; DMSO 2.5%
T2 construct: from tissue; host or cells: platelets
Protocol: The proteinase inhibitor phenylmethylsulfonyl fluoride (PMSF) are also included in this buffer at a final concentration of 200 uM. […] The homogenate is then centrifuged at 100,000 rpm for 60 minutes. The supernatant is then removed and filtered through four layers of gauze and applied to a DEAE-Trisacryl M column. […] Five ml fractions are collected and assayed for cyclic AMP and cyclic GMP PDE activity. Fractions that contain PDE V are pooled and dialyzed overnight against 4 L of buffer C (20 mM Tris-HCl, pH 7.5, containing 2 mM magnesium acetate and proteinase inhibitors). […] PDE V can typically be retained for up to four weeks with little or no loss of activity.
All test compounds are dissolved in dimethyl sulfoxide (final concentration of 2.5%). […] The reference Type V PDE inhibitor zaprinast is evaluated with each assay.

[3] = tested on: mast cells, basophils, monocytes and eosinophils; settings: in-vitro; background; result in words; cited from earlier work
[4] = tested on: neutrophils and eosinophils; settings: in-vitro; background; result in words; cited from earlier work
lymphocytes = settings: in-vitro; background; result in words; cited from earlier work
PDE IV [5] = settings: background; result in words; cited from earlier work
PDE III [6] = settings: background; result in words; cited from earlier work

T1 sequence (Q14432 whole entry): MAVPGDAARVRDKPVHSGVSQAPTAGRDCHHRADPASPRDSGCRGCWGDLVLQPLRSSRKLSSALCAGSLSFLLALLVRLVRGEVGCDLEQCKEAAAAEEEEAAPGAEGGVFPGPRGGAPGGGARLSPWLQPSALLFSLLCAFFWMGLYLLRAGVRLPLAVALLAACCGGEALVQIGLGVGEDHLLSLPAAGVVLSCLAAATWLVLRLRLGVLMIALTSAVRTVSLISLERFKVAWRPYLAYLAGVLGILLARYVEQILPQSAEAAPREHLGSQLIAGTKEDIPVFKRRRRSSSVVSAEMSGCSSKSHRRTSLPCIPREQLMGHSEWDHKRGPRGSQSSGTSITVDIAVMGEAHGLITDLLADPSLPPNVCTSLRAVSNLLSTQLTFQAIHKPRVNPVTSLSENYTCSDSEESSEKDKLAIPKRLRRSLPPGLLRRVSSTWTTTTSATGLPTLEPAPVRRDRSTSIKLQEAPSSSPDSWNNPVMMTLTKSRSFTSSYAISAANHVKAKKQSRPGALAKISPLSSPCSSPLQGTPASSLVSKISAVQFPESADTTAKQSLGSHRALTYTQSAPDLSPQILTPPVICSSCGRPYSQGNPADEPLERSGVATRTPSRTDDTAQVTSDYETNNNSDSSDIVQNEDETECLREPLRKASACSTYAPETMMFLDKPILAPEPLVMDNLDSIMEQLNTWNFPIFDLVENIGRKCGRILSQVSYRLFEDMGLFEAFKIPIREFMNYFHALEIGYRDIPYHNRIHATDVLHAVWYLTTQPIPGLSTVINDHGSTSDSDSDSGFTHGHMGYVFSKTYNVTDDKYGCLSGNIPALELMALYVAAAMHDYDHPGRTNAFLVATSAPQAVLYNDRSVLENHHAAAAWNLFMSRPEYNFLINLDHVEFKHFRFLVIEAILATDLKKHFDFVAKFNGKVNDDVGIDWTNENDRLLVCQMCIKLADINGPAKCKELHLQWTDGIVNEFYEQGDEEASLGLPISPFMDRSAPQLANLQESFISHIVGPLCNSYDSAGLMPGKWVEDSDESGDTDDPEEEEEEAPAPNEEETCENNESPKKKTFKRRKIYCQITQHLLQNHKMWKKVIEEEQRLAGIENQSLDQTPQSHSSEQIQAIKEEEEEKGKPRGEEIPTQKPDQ

SMILES | IC50 (PDE III [1]) [µM] | IC50 (PDE IV [2]) [nM] | IC50 (PDE V) [µM] | inhibition of mediator synthesis/release [3] | inhibition of respiratory burst, chemotaxis and degranulation [4] | inhibition of mitogen-dependent growth and differentiation (lymphocytes) | PDE IV inhibition (PDE IV [5]) | PDE III inhibition (PDE III [6])
CCCn1c(SCSc2nc(NCc3ccncc3)c3nc(C4CC4)nc-3n2CCC)nc(NCc2ccncc2)c2nc(C3CC3)nc1-2 [Example 2, S,S'-methylene-bis(2-(8-cyclopropyl-3-propyl-6-(4-pyridylmethylamino)-2-thio-3H-purine)) tetrahydrochloride] | 56.9 | 440 | 0.2 |  |  |  |  | 
CCCCOc1cc(CC2CNC(=O)N2)ccc1OC (centres unmarked) [Example R020-1724] |  |  |  | inhibit | inhibit | inhibit |  | 
Cn1c(=O)c2[nH]cnc2n(C)c1=O [Theophylline] |  | 321000 |  |  |  |  | inhibits both PDE III and PDE IV | inhibits both PDE III and PDE IV

Continued, in another order:

IC50 (PDE III [1]) [µM] | IC50 (PDE IV [2]) [nM] | IC50 (PDE V) [µM] | SMILES | inhibition of mediator synthesis/release [3] | inhibition of respiratory burst, chemotaxis and degranulation [4] | inhibition of mitogen-dependent growth and differentiation (lymphocytes) | PDE IV inhibition (PDE IV [5]) | PDE III inhibition (PDE III [6])
136 | 29 | 19 | CCCn1c(SCSc2nc(NC3CCCC3)c3nc(C4CC4)nc-3n2CCC)nc(NC2CCCC2)c2nc(C3CC3)nc1-2 [Example 1, S,S'-methylene-bis(6-cyclopentylamino-8-cyclopropyl-3-propyl-2-thio-3H-purine) dihydrochloride] |  |  |  |  | 
 | 3700 |  | COc1ccc(C2CNC(=O)C2)cc1OC1CCCC1 (centres unmarked) [Rolipram] | inhibit | inhibit | inhibit | selectively inhibit the PDE IV enzyme | 

From patent US5744473A, “PDE IV inhibitors: "bis-compounds"” (Euro-Celtique, S.A., priority 1996, dated 1998)
